Reference: publication PMC2923446 (Virology, 2009)
No end group written: not given here.

How the values were obtained:
[1] = tested on: vMJ343; conditions: 1 h
[2] = tested on: Vero cells; conditions: concentrations as high as 100 μM; ref Akkarawongsa et al., 2006; cited from earlier work
[3] = tested on: HeLa cells; conditions: concentrations as high as 100 μM; ref Akkarawongsa et al., 2006; cited from earlier work
[4] = tested on: HeLa cells; experiment: Cytotoxicity after low pH wash; assay type: cell-based; conditions: PBS pH 7 or 5, 150 μM EB 1 hr 37°C, n = 6
[5] = tested on: Vaccinia virus; conditions: 1 h
[6] = tested on: recombinant vaccinia virus vMJ343; conditions: 1 h
[7] = tested on: mouse corneas; conditions: applied at a concentration of 6.1 mM; ref Akkarawongsa et al., 2006; cited from earlier work
[8] = tested on: HeLa or Vero cells; conditions: ref Akkarawongsa et al., 2006; cited from earlier work

RRKKAAVALLPAVLLALLAP [EB]
EC50 [1]: ~45 µM | Cytotoxicity to Vero cells [2]: not cytotoxic | Cytotoxicity to HeLa cells [3]: not cytotoxic | Toxicity of low pH treatment and subsequent EB exposure [4]: not toxic to the cells | EC50 [5]: 15 µM | EC50 [6]: 45 µM | Cytotoxic effects on mouse corneas [7]: no cytotoxic effects | CC50 (50% cytotoxic concentration) [8]: >100 µM

RRKKLAALPLVLAAPLAVLA [EBX, reference compound]
EC50 [5]: 150 µM | CC50 (50% cytotoxic concentration) [8]: >100 µM
